Experimental data taken from paper PMC9127750, “Structure-based design of CDC42 effector interaction inhibitors for the treatment of cancer” (Cell reports, 2022).

System: WM3248 melanoma cells, 486 antibodies
Test: Reverse phase protein arrays (RPPA);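 as to RPPA ACC1.R.C: ratio of treated to vehicle (0 µM) normalized linear protein signal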;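 as to RPPA AMPK.a2 pS345.R.V: ratio of treated to vehicle (0 µM) normalized linear protein signal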;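 as to RPPA AMPKa pT172.R.C: ratio of treated to vehicle (0 µM) normalized linear protein signal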;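 as to RPPA ASNS.R.V: ratio of treated to vehicle (0 µM) normalized linear protein signal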;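 as to RPPA Akt1.R.V: ratio of treated to vehicle (0 µM) normalized linear protein signal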;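 as to RPPA Atg5.R.C: ratio of treated to vehicle (0 µM) normalized linear protein signal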;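 as to RPPA Bim.R.V: ratio of treated to vehicle (0 µM) normalized linear protein signal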
Assay type: cell-based, Human
Details: 10 uM
From the text: Pellets were snap frozen in liquid nitrogen and shipped to MD Anderson Cancer Center core RPPA facility for RPPA analysis (Table S5). Three biological replicates for each sample were generated.
Nomenclatures on the RPPA heatmaps: name_of_antibody.species_of_antibody.status_of_antibody. V - antibody validated; C - validation of antibody in progress; Q - antibody nonspecific; E – under evaluation; antibodies raised in M - mouse, G - goat, R - rabbit, or T - rat.

With `CN(C)c1cccc(Nc2cc(-c3ccccc3)nc(C3CCNCC3)n2)c1` [ARN22089, N1,N1-dimethyl-N3-(6-phenyl-2-(piperidin-4-yl)pyrimidin-4-yl)benzene-1,3-diamine] the “RPPA level MTCO1.M.V” value (Average) was 0.952, the “RPPA level Mcl.1.R.V” value (Average) was 0.908 and the “RPPA level MelanA.R.C” value (Average) was 0.925. The “RPPA level Merlin.R.C” value (Average) was 0.993, the “RPPA level Midkine.R.V” value (Average) was 1.001 and the “RPPA level Mitofusin.1.R.V” value (Average) was 0.993. The “RPPA level Mitofusin.2.R.V” value (Average) was 0.945, the “RPPA level Mnk1.R.V” value (Average) was 0.956 and the “RPPA level mTOR.R.V” value (Average) was 0.929. The “RPPA level mTOR_pS2448.R.C” value (Average) was 0.962, the “c.Jun_pS73.R.V RPPA level” value (Average) was 1.013 and the “c.Kit.R.V RPPA level” value (Average) was 1.031. The “c.Met_pY1234_Y1235.R.V RPPA level” value (Average) was 0.982, the “c.Myc.R.C RPPA level” value (Average) was 1.334 and the “cGAS.R.V RPPA level” value (Average) was 1.114. For the same compound, the “cdc2_pY15.R.C RPPA level” value (Average) was 0.967, the “cdc25C.R.V RPPA level” value (Average) was 0.900 and the “RPPA A.Raf.R.V” value (C.1) was 0.924. The “RPPA A.Raf_pS299.R.C” value (C.1) was 1.052, the “RPPA ACC1.R.C” value (C.1) was 0.932 and the “RPPA ACC_pS79.R.V” value (C.1) was 1.211. For the same compound, the “RPPA ACLY_pS455.R.V” value (C.1) was 1.216, the “RPPA ACVRL1.R.C” value (C.1) was 1.064 and the “RPPA ADAR1.M.V” value (C.1) was 1.080. The “RPPA ALKBH5.R.V” value (C.1) was 1.056, the “RPPA AMPK.a2_pS345.R.V” value (C.1) was 0.962 and the “RPPA AMPKa.R.C” value (C.1) was 0.981. For the same compound, the “RPPA AMPKa_pT172.R.C” value (C.1) was 2.354, the “RPPA AR.R.V” value (C.1) was 0.957 and the “RPPA ARID1A.R.C” value (C.1) was 1.055. For the same compound, the “RPPA ASNS.R.V” value (C.1) was 0.968, the “RPPA ATM.R.V” value (C.1) was 0.876 and the “RPPA ATM_pS1981.R.V” value (C.1) was 1.025. For the same compound, the “RPPA ATP5A.M.C” value (C.1) was 1.084, the “RPPA ATP5H.R.V” value (C.1) was 1.134 and the “RPPA ATRX.R.C” value (C.1) was 0.823. The “RPPA AceCS1.R.V” value (C.1) was 1.056, the “RPPA Akt1.R.V” value (C.1) was 0.796 and the “RPPA Akt1_pS473.R.V” value (C.1) was 0.792. The “RPPA Akt2.R.V” value (C.1) was 0.881, the “RPPA Akt2_pS474.R.C” value (C.1) was 0.939 and the “RPPA Akt.R.V” value (C.1) was 0.872. The “RPPA Akt_pS473.R.V” value (C.1) was 0.917, the “RPPA Akt_pT308.R.V” value (C.1) was 0.810 and the “RPPA Ambra1_pS52.R.C” value (C.1) was 1.060. For the same compound, the “RPPA Annexin.I.M.V” value (C.1) was 0.884, the “RPPA Annexin.VII.M.V” value (C.1) was 1.054 and the “RPPA Atg3.R.V” value (C.1) was 0.850. The “RPPA Atg4B.R.C” value (C.1) was 0.734, the “RPPA Atg5.R.C” value (C.1) was 0.909 and the “RPPA Atg7.R.V” value (C.1) was 0.713. For the same compound, the “RPPA Aurora.A.R.C” value (C.1) was 1.325, the “RPPA Aurora.ABC_pT288_pT232_pT198.R.C” value (C.1) was 1.697 and the “RPPA Axl.R.V” value (C.1) was 0.673. The “RPPA B7.H3.R.C” value (C.1) was 0.862, the “RPPA B7.H4.R.C” value (C.1) was 0.874 and the “RPPA B.Raf.R.C” value (C.1) was 0.709. For the same compound, the “RPPA B.Raf_pS445.R.V” value (C.1) was 0.874, the “RPPA BCL2A1.R.V” value (C.1) was 0.885 and the “RPPA BMK1.Erk5_pT218_Y220.R.V” value (C.1) was 1.100. For the same compound, the “RPPA BRCA1.M.C” value (C.1) was 0.993, the “RPPA Bad_pS112.R.V” value (C.1) was 1.031 and the “RPPA Bak.R.C” value (C.1) was 1.026. For the same compound, the “RPPA Bax.R.V” value (C.1) was 0.917, the “RPPA Bcl2.R.C” value (C.1) was 1.064 and the “RPPA Bcl.xL.R.V” value (C.1) was 0.877. The “RPPA BiP.GRP78.M.C” value (C.1) was 0.971, the “RPPA Bid.R.C” value (C.1) was 0.858 and the “RPPA Bim.R.V” value (C.1) was 0.886. For the same compound, the “RPPA X4E.BP1.R.V” value (C.1) was 1.220, the “RPPA X4E.BP1_pS65.R.V” value (C.1) was 0.985 and the “RPPA X4E.BP1_pT37_T46.R.V” value (C.1) was 0.975. For the same compound, the “RPPA X14.3.3.zeta.R.V” value (C.1) was 1.026, the “RPPA X53BP1.R.V” value (C.1) was 0.922 and the “RPPA b.Actin.R.C” value (C.1) was 0.996. For the same compound, the “RPPA b.Catenin_pT41_S45.R.V” value (C.1) was 0.984, the “RPPA c.Abl.R.V” value (C.1) was 1.031 and the “RPPA c.Abl_pY412.R.C” value (C.1) was 0.928. For the same compound, the “RPPA c.IAP2.R.C” value (C.1) was 1.007, the “RPPA PREX1.R.V Average” value (average of 3) was 0.915 and the “RPPA PTEN.R.V Average” value (average of 3) was 0.933. The “RPPA PTPN12.R.V Average” value (average of 3) was 0.962, the “RPPA PYGB.R.V Average” value (average of 3) was 1.021 and the “RPPA PYGM.M.C Average” value (average of 3) was 1.025. The “RPPA Puma.R.C Average” value (average of 3) was 0.968, the “RPPA Pyk2_pY402.R.C Average” value (average of 3) was 0.960 and the “RPPA RBM15.R.V Average” value (average of 3) was 0.873. The “RPPA RIP3.R.C Average” value (average of 3) was 0.948, the “RPPA RIP.R.C Average” value (average of 3) was 0.978 and the “RPPA RPA32_pS4_S8.R.C Average” value (average of 3) was 1.083. The “RPPA RRM1.R.C Average” value (average of 3) was 0.916, the “RPPA RRM2.R.C Average” value (average of 3) was 0.917 and the “RPPA RSK1.R.V Average” value (average of 3) was 0.967. The “RPPA RSK.R.C Average” value (average of 3) was 0.909, the “RPPA Rab11.R.C Average” value (average of 3) was 0.990 and the “RPPA Rab25.R.V Average” value (average of 3) was 0.979. The “RPPA Rad17_pS645.R.V Average” value (average of 3) was 1.063, the “RPPA Rad23A.R.C Average” value (average of 3) was 0.920 and the “RPPA Rad50.R.V Average” value (average of 3) was 0.991. The “RPPA Rad51.R.C Average” value (average of 3) was 1.083, the “RPPA Raptor.R.V Average” value (average of 3) was 0.939 and the “RPPA Rb.M.Q Average” value (average of 3) was 1.024. For the same compound, the “RPPA Rb_pS807_S811.R.V Average” value (average of 3) was 0.952, the “RPPA Rheb.M.C Average” value (average of 3) was 1.056 and the “RPPA Rictor.R.C Average” value (average of 3) was 0.955. For the same compound, the “RPPA Rictor_pT1135.R.V Average” value (average of 3) was 1.027, the “RPPA S6.M.V Average” value (average of 3) was 0.930 and the “RPPA S6_pS235_S236.R.V Average” value (average of 3) was 0.713. The “RPPA S6_pS240_S244.R.V Average” value (average of 3) was 0.956, the “RPPA SCD.M.V Average” value (average of 3) was 1.034 and the “RPPA SF2.R.V Average” value (average of 3) was 1.005. For the same compound, the “RPPA SFRP1.R.V Average” value (average of 3) was 0.965, the “RPPA SGK1.R.V Average” value (average of 3) was 1.012 and the “RPPA SGK3.R.V Average” value (average of 3) was 1.035. The “RPPA SHP2.R.V Average” value (average of 3) was 1.004, the “RPPA SHP.2_pY542.R.C Average” value (average of 3) was 0.896 and the “RPPA SIRPαR.V Average” value (average of 3) was 1.009. For the same compound, the “RPPA SLC1A5.R.C Average” value (average of 3) was 0.975, the “RPPA SOD1.M.V Average” value (average of 3) was 1.031 and the “RPPA SOD2.R.V Average” value (average of 3) was 1.115. The “RPPA SOX7.R.V Average” value (average of 3) was 1.015, the “RPPA STING.R.V Average” value (average of 3) was 0.904 and the “RPPA Shc_pY317.R.C Average” value (average of 3) was 1.847. For the same compound, the “RPPA Slfn11.G.C Average” value (average of 3) was 0.945, the “RPPA Smac.M.Q Average” value (average of 3) was 0.998 and the “RPPA Smad1.R.V Average” value (average of 3) was 1.021. The “RPPA Smad3.R.V Average” value (average of 3) was 0.979, the “RPPA Snail.M.Q Average” value (average of 3) was 0.977 and the “RPPA Sox2.R.V Average” value (average of 3) was 0.987. The “RPPA Sox17.R.V Average” value (average of 3) was 1.018, the “RPPA Src.M.V Average” value (average of 3) was 1.079 and the “RPPA Src_pY416.R.V Average” value (average of 3) was 0.992. For the same compound, the “RPPA Src_pY527.R.V Average” value (average of 3) was 0.908, the “RPPA Stat1_pY701.R.V Average” value (average of 3) was 1.035 and the “RPPA Stat3.R.C Average” value (average of 3) was 0.972. The “RPPA Stat3_pY705.R.C Average” value (average of 3) was 1.002, the “RPPA Stat5a.R.V Average” value (average of 3) was 0.958 and the “RPPA TAZ.R.V Average” value (average of 3) was 0.958. For the same compound, the “RPPA TEAD.R.C Average” value (average of 3) was 0.967, the “RPPA TFAM.R.V Average” value (average of 3) was 0.914 and the “RPPA TFRC.R.V Average” value (average of 3) was 0.926. For the same compound, the “RPPA TIGAR.R.V Average” value (average of 3) was 0.978, the “RPPA TRAP1.M.V Average” value (average of 3) was 1.032 and the “RPPA TRIM25.R.C Average” value (average of 3) was 0.869. The “RPPA TRIP13.R.V Average” value (average of 3) was 1.026, the “RPPA Transglutaminase.M.V Average” value (average of 3) was 1.215 and the “RPPA signal, antibody TSC1.R.C, Average” value (average of 3 replicates) was 0.905. The “RPPA signal, antibody TTF1.R.V, Average” value (average of 3 replicates) was 0.943, the “RPPA signal, antibody TUFM.R.V, Average” value (average of 3 replicates) was 1.288 and the “RPPA signal, antibody Tuberin.R.V, Average” value (average of 3 replicates) was 0.933. For the same compound, the “RPPA signal, antibody Tuberin_pT1462.R.V, Average” value (average of 3 replicates) was 1.050, the “RPPA signal, antibody Twist.M.C, Average” value (average of 3 replicates) was 1.060 and the “RPPA signal, antibody Tyro3.R.V, Average” value (average of 3 replicates) was 1.231. The “RPPA signal, antibody U.Histone.H2B.R.C, Average” value (average of 3 replicates) was 0.832, the “RPPA signal, antibody UBAC1.R.V, Average” value (average of 3 replicates) was 0.948 and the “RPPA signal, antibody UBQLN4.M.C, Average” value (average of 3 replicates) was 0.975. The “RPPA signal, antibody UGT1A.M.V, Average” value (average of 3 replicates) was 1.078, the “RPPA signal, antibody ULK1_pS757.R.C, Average” value (average of 3 replicates) was 0.965 and the “RPPA signal, antibody UQCRC2.M.C, Average” value (average of 3 replicates) was 0.921. For the same compound, the “RPPA signal, antibody UVRAG.R.C, Average” value (average of 3 replicates) was 0.967, the “RPPA signal, antibody VASP.R.V, Average” value (average of 3 replicates) was 0.887 and the “RPPA signal, antibody VAV1.R.C, Average” value (average of 3 replicates) was 0.939. The “RPPA signal, antibody VEGFR.2.R.V, Average” value (average of 3 replicates) was 0.919.
